According to patent US20210130826A1, “METHODS OF MODULATING ANTISENSE ACTIVITY” (IONIS PHARMACEUTICALS, INC., priority 2018, published 2021):

What was measured:
[1] = test system: p62; experiment: Liver protein analysis in mice: p62; assay type: in vivo; conditions: Table 30; mouse liver 24 h; oligonucleotide 5 mg/kg (or PBS); Treatment AZD8055 5 mg/kg at 0, 12, 22 h
Experimental: The following experiments were performed to determine if the effects of autophagy modulators on antisense activity in vitro can be observed in vivo. Groups of 3-4 8-week-old male C57bl/6J mice were administered 5 mg/kg control oligonucleotide 141923, or 5 mg/kg antisense oligonucleotide 399462. Following administration of modified oligonucleotide, mice were administered 1% DMSO or 5 mg/kg AZD8055 in 1% DMSO at three time points over 24 hours: at the time of administration of the modified oligonucleotide, and 12 and 22 hours after administration of the modified oligonucleotide. A group of control mice was administered PBS at time 0 and 1% DMSO at 0, 12, and 22 hours. Mice were sacrificed at 24 hours after administration of the modified oligonucleotide and tissues were collected for analysis.
Autophagy activation was confirmed in livers by determining suppression of mTOR kinase activity (pS6/S6 levels), determining an increased LC3B II/I ratio (a marker for the formation of autophagosomes), and determining p62 degradation (related to the clearance of autophagosomes). Protein analysis was carried out on liver tissue using standard procedures. All proteins were normalized to α-tubulin. Phospho-S6 Ribosomal Protein (Ser240/244) (2215S), and S6 Ribosomal Protein (2217S) antibodies were obtained from Cell Signaling Technology. The antibody against LC3B (ab48394) was purchased from Abcam. […]

[2] = test system: Malat-1; experiment: MALAT-1 RNA in mouse liver by RT-qPCR; assay type: in vivo
Experimental: The following experiments were performed to determine if the effects of autophagy modulators on antisense activity in vitro can be observed in vivo. […] Mice were sacrificed at 24 hours after administration of the modified oligonucleotide and tissues were collected for analysis. […] Atg7 mRNA levels are a marker of the induction of autophagy in treated mouse livers. Results are presented as percent change of RNA, relative to PBS control treated with DMSO, normalized to mouse cyclophilin A measured using mouse primer probe set Cyclophilin-A (forward sequence [NT], designated herein as SEQ ID NO: 38; reverse sequence [NT], designated herein as SEQ ID NO: 39; probe sequence [NT], designated herein as SEQ ID NO: 40). […] Following administration of modified oligonucleotide, groups of mice were either allowed free access to chow (control) or fasted overnight (16 hr fast). Mice were sacrificed at 16 hours after administration of the modified oligonucleotide and tissues were collected for analysis. […] Atg7 mRNA levels are a marker of the induction of autophagy in treated mouse livers. Results are presented in Table 33 relative to mice treated with PBS and allowed normal access to chow. […] Mice were sacrificed at 24 hours after administration of the modified oligonucleotide and tissues were collected for analysis. […] Atg7 mRNA levels are a marker of the induction of autophagy in treated mouse livers. […] RNA was extracted from liver tissue for real-time RTPCR analysis of MALAT1 RNA expression. Primer probe set 15877 was used to measure mouse MALAT1 RNA levels. Results are presented as percent change of RNA, relative to PBS control, normalized to mouse cyclophilin A measured using mouse primer probe set Cyclophilin-A. […] RNA was extracted from liver tissue for real-time RTPCR analysis of MALAT1 RNA expression. Primer probe set 15877 was used to measure mouse MALAT1 RNA levels. Results are presented as percent change of RNA, relative to PBS control, normalized to mouse cyclophilin A measured using mouse primer probe set Cyclophilin-A.

With COc1ccc(-c2ccc3c(N4CCOC[C@@H]4C)nc(N4CCOC[C@@H]4C)nc3n2)cc1CO [AZD8055] the P62 [1] was 0.5, the “Malat-1 level (% relative to PBS/DMSO-treated mice)” value ([2]; Table 31, mouse liver 24 h, oligonucleotide 5 mg/kg, AZD8055 5 mg/kg at 0, 12, 22 h) was 121% and the “effect on ASO activity in vivo (in words)” value ([2]; mouse liver, 399462 5 mg/kg, AZD8055 5 mg/kg) was “greater Malat1 RNA reduction”.
